The text below walks through data of ChEMBL document CHEMBL1201862, “PubChem BioAssay data set” (2004).

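The compound was tested at five concentrations on cells cultured in 96-well plates, with a 48-hour exposure period. At the GI50, growth is halved.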 Activity calls are given as the source filed them. No stated cut-off is given here; in the data, active = GI50 up to about 1.1 µM and inactive = higher.

Test in all cases: growth of human tumour cells (NCI), 48 h
In assay [1] the test system is DMS-114.
For assay [2], the system named is DMS-273.
Assay [3] relates to HOP-18.
For assay [4], the system named is KM-20L2.
For assay [5], the system named is LXFL 529.
Assay [6] relates to RXF 631.
Assay [7] relates to SNB-78.
The test system of assay [8] is XF498.

With `[N-]=[N+]=Nc1ccc(S(=O)(=O)Oc2cc(OS(=O)(=O)c3ccc(N=[N+]=[N-])cc3)cc(OS(=O)(=O)c3ccc(N=[N+]=[N-])cc3)c2)cc1`, the GI50 in assay [1], in assay [2], in assay [3], in assay [4], in assay [5] and in assay [6] was > 100 µM (inactive) throughout. For the same molecule, the GI50 in assay [7] and in assay [8] was > 100 µM (inactive) in each case.

Regarding `CCN(CC)CCCN(c1cc(OC)cc2nccnc12)S(=O)(=O)c1ccc(C)cc1`, the GI50 in assay [1], in assay [2], in assay [3], in assay [4], in assay [5] and in assay [6] was > 100 µM (inactive) each time. Moreover, the GI50 in assay [8] was > 100 µM (inactive).

In the case of `N#Cc1ccccc1Nc1ccccc1S`, the GI50 was 21.8 µM (inactive) in assay [1]; 34.5 µM (inactive) in assay [2]; 89.7 µM (inactive) in assay [3]; 22.5 µM (inactive) in assay [5]; 37.8 µM (inactive) in assay [6]; 37.6 µM (inactive) in assay [7]. Besides, in assay [8], the GI50 was 18 µM (inactive).

Consider `C=C1CC2(CCS(=O)(=O)c3ccccc32)OC1=O` (stereo not given), for which the GI50 was 3.94 µM (inactive) in assay [1]; 16.5 µM (inactive) in assay [2]; 3.63 µM (inactive) in assay [3]; 14.3 µM (inactive) in assay [4]; 4.4 µM (inactive) in assay [5]; 20.7 µM (inactive) in assay [6]. In addition, the GI50 is 9.51 µM (inactive) in assay [7] and 13.2 µM (inactive) in assay [8].

As for `CCOc1ccc(NC(=O)CC2C(=O)Nc3ccccc3S2(=O)=O)cc1` (stereo not given), the GI50 in assay [1] is > 100 µM (inactive); in assay [3], > 100 µM (inactive); in assay [4] it was > 100 µM (inactive); in assay [5], > 100 µM (inactive); in assay [6], > 100 µM (inactive); in assay [7], 90.4 µM (inactive). Besides, the GI50 in assay [8] is 29.8 µM (inactive).

As for `O=C1c2cccc3cccc(c23)C(=O)N1CCCN1CCN(CCCN2C(=O)c3cccc4cccc(c34)C2=O)CC1`, the GI50 in assay [1], in assay [2], in assay [3], in assay [4], in assay [5] and in assay [6] was > 100 µM (inactive) throughout. Besides, the GI50 in assay [7] and in assay [8] was > 100 µM (inactive) throughout.

Turning to `NNC(=O)C(=O)NN=C(C(Cl)(Cl)CO)C(Cl)(Cl)CO`, the GI50 in assay [2] is 65.9 µM (inactive); in assay [3], > 100 µM (inactive); in assay [4], 44.5 µM (inactive); in assay [5], 28.2 µM (inactive); in assay [6] it was 21.3 µM (inactive); in assay [7] it was 21.5 µM (inactive). The GI50 in assay [8] is 16.6 µM (inactive).

As for `FC(F)(F)c1nc(-c2ccccc2)oc1Sc1nnc(Sc2oc(-c3ccccc3)nc2C(F)(F)F)s1`, the GI50 was 6.15 µM (inactive) in assay [1]; 46.8 µM (inactive) in assay [2]; > 100 µM (inactive) in assay [3]; > 100 µM (inactive) in assay [4]; 27.8 µM (inactive) in assay [5]; 36.9 µM (inactive) in assay [6]. Besides, the GI50 was 34.1 µM (inactive) in assay [7] and 9.06 µM (inactive) in assay [8].

For `CN1N=CSC12C(=O)N(c1ccccc1)C(=O)N2c1ccccc1` (stereo not given), the GI50 in assay [1] is > 100 µM (inactive); in assay [2], > 100 µM (inactive); in assay [3], < 0.01 µM (active); in assay [4], > 100 µM (inactive); in assay [5], > 100 µM (inactive); in assay [6] it was > 100 µM (inactive). Moreover, the GI50 in assay [7] and in assay [8] was > 100 µM (inactive) in each case.

Turning to `COc1cc(/C=C/c2ccc(Br)cc2)cc(OC)c1OC`, the GI50 was 10.4 µM (inactive) in assay [1]; 4.91 µM (inactive) in assay [2]; 6.61 µM (inactive) in assay [3]; 7.13 µM (inactive) in assay [4]; 16.1 µM (inactive) in assay [5]; 9.77 µM (inactive) in assay [6]. For the same molecule, the GI50 in assay [8] is 20.2 µM (inactive).
